US20240254531A1, “Enhancing Coupled Catalytic Activity of Multi-Enzyme Cascades With Liquid-Liquid Phase Separation Using Peptide-Based Condensates” (The Government of the United States of America, as …, priority 2023, published 2024)

How the values were obtained:
other enzymes = assay: enhancement of activity of other enzymes by peptide; assay type: biochemical; conditions: as detailed in the Appendix of Provisional Patent Application No. 63/482,369
[1] = system: three enzyme cascade (AspB, LysC, Asd); assay: three-enzyme cascade reaction, rate of NADP+ formation with added peptide; assay type: biochemical, Bacillus subtilis (AspB); E. coli (LysC; conditions: addition of peptide vs no BP, FIG. 6A
Excerpt: A three-enzyme cascade was used for these examples. The first enzyme in the cascade is Bacillus subtilis aspartate ammonia lyase (AspB), which catalyzes the conversion of fumaric acid to aspartic acid. The AspB gene utilized here encodes a 54.5 kDa monomer which assembles into a final active tetramer. The second enzyme is E. coli aspartokinase III (LysC) which phosphorylates aspartic acid in the second step using adenosine triphosphate (ATP) as the phosphate donor. The LysC gene encodes a 49.9 kDa monomer, which assembles into an active ˜100 kDa homodimer. The third enzyme in the cascade, E. coli aspartate-ß-semialdehyde dehydrogenase (Asd), catalyzes conversion of aspartyl phosphate to aspartate semialdehyde using nicotinamide adenine dinucleotide phosphate (NADPH) as the reducing co-factor. The Asd gene encodes a 41.4 kDa monomer which assembles into the active homodimer.
FIG. 2 provides data for free enzymes (not bound to QD) in the presence of different blocking peptides described in Table 1. […]
Also assayed were two peptides comprising primarily histidine, termed His9 and His12, with their sequences provided below in Table 3. […] FIG. 6C is a fluorescence microscopy image of the same subject of FIG. 6B showing that Alexa594 labeled enzymes are colocalized to the coacervate interior.

[2] = brightfield microscopy of peptide coacervate formation; assay type: physicochemical; conditions: brightfield microscopy image, FIG. 6B
Excerpt: FIGS. 6A-6C show data for enhancement with His9 and His12 peptides and fluorescence micrograph images denoting coacervate formation and localization of enzymes within the coacervates. In FIG. 6A one can see the normalized initial rate of NADP+ formation of the three enzyme cascade with no BP or with addition of the His9 and His12 peptides. The flux through the cascade is increased with the addition of the BP. […] FIG. 6C is a fluorescence microscopy image of the same field as FIG. 6B showing that Alexa594 labeled enzymes are colocalized to the coacervate interior. Excitation was with a 562 nm laser and detection at 570-620 nm.
Also assayed were two peptides comprising primarily histidine, termed His9 and His12, with their sequences provided below in Table 3. FIGS. 6A to 6C show data relating to these peptides. […] The flux through the cascade is increased with the addition of the BP. […] FIG. 6C is a fluorescence microscopy image of the same subject of FIG. 6B showing that Alexa594 labeled enzymes are colocalized to the coacervate interior.

Substance	activity of other enzymes (other enzymes)	flux through the cascade (normalized initial rate of NADP+ formation) [1]	coacervate formation [2]
[NH2]GSWHHHHHH[Amide] (H-GSWHHHHHH-NH2) [His-amine]	enhance activity	–	–
[NH2]WHHHHHHHHHHHH[COOH] (H-WHHHHHHHHHHHH-OH) [His12]	–	increased	–
[NH2]WHHHHHHHHH[COOH] (H-WHHHHHHHHH-OH) [His9]	–	increased	form coacervates
